These results are taken from patent US20090075941A1, “TREATING NEOPLASMS” (THE UAB RESEARCH FOUNDATION, priority 2006, published 2009).

Series [1] can be described thus: Tumor uptake of Tc99m-medronate, biodistribution. The format is in vivo. Conditions: nude mice, i.v. The method, then:
Tumor uptake of Tc99m-medronate. To investigate accumulation of the bone scanning agent (Tc99m-medronate) into the subcutaneous tumors, nude mice were first inoculated subcutaneously with AB-12 or MDA-MB-231 cells (10^6 cells in 100 μl of sterile PBS) and the tumors were allowed to form for 3-4 weeks. Tc99m-medronate (MDP-Bracco™; Bracco Diagnostics Inc.; Princeton, N.J.) was then injected into the tail veins of the mice (˜800-1000 μCi per mouse) in 100 μl. High-resolution pinhole SPECT/CT imaging studies (X-SPECT system, GammaMedica, Inc.; Northridge, Calif.) and biodistribution analyses were performed in nude mice with xenografted rumors to measure in vivo tumor retention of Tc99 medronate following i.v. injection. For SPECT imaging, a total of 64 projections were acquired with a 30-sec acquisition time per projection, using a pinhole collimator with a 1-mm tungsten pinhole insert. […] The dose retention, or % Injected Dose per gram, (% ID/g) of each tissue was calculated by measuring the radioactivity in the tissue using a gamma counter, decay correcting the count rate data to the Tc99m-medronate injection time and normalizing to the total injected dose in the animal as well as the tissue weight. Each animal's dose was determined by measuring the dosing syringe (AtomLab 100 dose calibrator; Biodex Medical Systems; Shirley, N.Y.) before and after injecting the mouse. […]

The subject of series [2] is unprenylated Rap1A in AB-12 mesothelioma cells. In words: Western blot, unprenylated Rap1A (Example 2). The format is cell-based, mouse. Conditions: AB-12 cells, 24 h; for effect on nitrogen-containing bisphosphonate-induced accumulation of unprenylated Rap1A: pyrophosphate-resembling : nitrogen-containing bisphosphonate ratio 100:1. As to the method:
(§1) Western blot analysis. Cells were cultured on 6-well plates in normal culture medium until near confluency. The cells were then rinsed with sterile PBS and cultured for further 24 h in serum-tree culture medium, in the presence or absence of the indicated bisphosphonates. Some cultures were also treated with 25 μM geranylgeraniol (cold, all trans), 1.0 μg/ml LPS (Sigma; St. Louis, Mo.) 10 ng/ml IL-1β (R&D Systems; Minneapolis, Minn.) or TNF-α (R&D Systems). To study bisphosphonate effects on connexin-43 expression, the cells were cultured for 24 h in serum-free culture medium in the presence of the indicated bisphosphonates or PBS as a vehicle control. Culture medium was then discarded, the cells were quickly lysed and prepared into Western blot samples, as described in Merrell et al. (2000) Breast Cancer Res. Treat. 81, 231-241. After boiling the supernatants in reducing sodium docedyl sulfate (SDS) sample buffer, equal amounts of protein (˜20-50 μg) were loaded per lane and the samples were electrophoresed on 10% SDS polyacrylamide gel and transferred to a nitrocellulose membrane. To detect, unprenylated Rap1A, the blots were incubated overnight at 4° C. with the antibody SC-1482 (Santa Cruz Technology (San Diego, Calif.)), diluted 1:1000 in Tris-buffered saline, 0.1% (v/v) Tween-20 (TEST), and then with peroxidase-conjugated anti-goat serum (Pierce; Rockford, Ill.), diluted 1:1000 in TBST. Total Rap1 was detected from stripped blots in a similar fashion, with the antibody SC-65 (Santa Cruz Technology). The phosphorylation status of p38 was investigated using anti-phospho-p38 (Cell Signaling; Beverly, Mass.) and after stripping of the membrane, with anti-total p38 antibodies (Cell Signaling), according to the manufacturer's instructions. Expression of connexin-43 was detected with a rabbit anti-connexin-43 antibody (Zymed Laboratories, Inc.; San Francisco, Calif.), diluted 1:1000 in TBST. The protein bands were visualized by chemiluminescence using SuperSignal West Pico ECL kit (Pierce Biotechnology, Inc.; Rockford, Ill.).

The subject of series [3] is unprenylated Rap1A in MDA-MB-231 breast cancer cells. Nature of the series: Western blot, unprenylated Rap1A (Example 2). The class given is cell-based, human. Conditions: MDA-MB-231 cells, 24 h; for effect on alendronate-induced accumulation of unprenylated Rap1A: 10^−4 M alendronate plus clodronate 10^−3 M, geranylgeraniol 25 μM, or cytokines/LPS. As to the method:
as §1

Another series has as its system MDA-MB-231 cells. In words: Cell viability, MTS-assay. Conditions: for effect of added Ca2+ on the bisphosphonate's growth inhibitory effect: 1 mM CaCl2, N-BP 10^−4 M or p-BP 10^−3 M. The format is cell-based, human. As to the method: (§2) Cell viability assays. Cells were plated on 96-well plates at the density of 1×10^3 cells in 100 μl per well in normal culture medium, with or without of the indicated concentrations of the various bisphosphonate combinations and or 1 mM CaCl2, 1 mM EGTA or vehicle and cultured for 48 h. Cell viability was assessed with 3-(4,5-dimethylthiazol-2-yl)-5-(3-carboxy tetrazolium, inner salt (MTS)-assays (CellTiter Aqueous One 96 from Promega; Madison, Wis.) according to the manufacturer's instructions. For each treatment, a PBS-control group was run simultaneously on the same plate. The results for each treatment were calculated as % of the corresponding PBS-group.

A further series relates to AB-12 cells. Nature of the series: Cell viability, MTS-assay. The class given is cell-based, mouse. The conditions noted are these: for effect of added Ca2+ on the bisphosphonate's growth inhibitory effect: 1 mM CaCl2, N-BP 10^−4 M or p-BP 10^−3 M. As to the method:
as §2

In the next series the test system is J774 cells. Nature of the series: Cell viability, MTS-assay. The class given is cell-based. Conditions: for effect of added EGTA on the bisphosphonate's growth inhibitory effect: 1 mM EGTA, N-BP 10^−4 M or clodronate 10^−3 M. As to the method:
as §2

Series [4] concerns p38 phosphorylation in AB-12 cells. In words: Western blot, phosphorylation of p38 (Example 2). The class given is cell-based, mouse. The conditions noted are these: excess, added simultaneously. The method, then: as §1, with “To detect, unprenylated Rap1A, the blots were incubated overnight at 4° C. with the antibody SC-1482 (Santa Cruz Technology (San Diego, Calif.)), diluted 1:1000 in Tris-buffered saline, 0.1% (v/v) Tween-20 (TEST), and then with peroxidase-conjugated anti-goat serum (Pierce; Rockford, Ill.), diluted 1:1000 in TBST.” left out, “The phosphorylation status of p38 was investigated using anti-phospho-p38 (Cell Signaling; Beverly, Mass.) and after stripping of the membrane, with anti-total p38 antibodies (Cell Signaling), according to the manufacturer's instructions.” left out, “The protein bands were visualized by chemiluminescence using SuperSignal West Pico ECL kit (Pierce Biotechnology, Inc.; Rockford, Ill.).” left out

For series [5], the system named is p38 phosphorylation in MDA-MB-231 cells. Nature of the series: Western blot, phosphorylation of p38 (Example 2). The format is cell-based, human. The conditions noted are these: 10^−3 M. As to the method: as §1, with “To detect, unprenylated Rap1A, the blots were incubated overnight at 4° C. with the antibody SC-1482 (Santa Cruz Technology (San Diego, Calif.)), diluted 1:1000 in Tris-buffered saline, 0.1% (v/v) Tween-20 (TEST), and then with peroxidase-conjugated anti-goat serum (Pierce; Rockford, Ill.), diluted 1:1000 in TBST.” left out, “The phosphorylation status of p38 was investigated using anti-phospho-p38 (Cell Signaling; Beverly, Mass.) and after stripping of the membrane, with anti-total p38 antibodies (Cell Signaling), according to the manufacturer's instructions.” left out, “The protein bands were visualized by chemiluminescence using SuperSignal West Pico ECL kit (Pierce Biotechnology, Inc.; Rockford, Ill.).” left out

For `O=P(O)(O)CP(=O)(O)O` [Tc99m-medronate, metal not drawn], the “tissue with the highest accumulation: bones” value in series [1] (% dose retention in various tissues) is listed as “highest proportion”. The “accumulation (% dose retention) in AB-12 mesothelioma tumors compared with MDA-MB-231 breast cancer tumors” value in series [1] (tissues ~8 h after injection, % ID/g normalized to blood, P<0.05) is “significantly higher”.

For the compound `NCCCC(O)(P(=O)(O)O)P(=O)(O)O` [alendronate], the “accumulation of unprenylated Rap1A” value in series [2] and in series [3] was “dose-dependent accumulation” throughout. Also, the “effect of added EGTA on the bisphosphonate's growth inhibitory effect” value in the series on MDA-MB-231 cells (1 mM EGTA, N-BP 10^−4 M) is “reversed”; in the series with AB-12 cells (1 mM EGTA, N-BP 10^−4 M) it was “reversed”; in the series on J774 cells it was “reversed”. Besides, the cell viability entry in the series on MDA-MB-231 cells (10^−4 M, P<0.001) was “significant decrease in cell viability”; with AB-12 cells (10^−4 M, P<0.001), “significant decrease in cell viability”.

Consider `O=P(O)(O)C(Cl)(Cl)P(=O)(O)O` [clodronate], for which the “accumulation of unprenylated Rap1A” value in series [2] and in series [3] was “no effect” in each case. For the same compound, the “effect on nitrogen-containing bisphosphonate-induced accumulation of unprenylated Rap1A” value in series [2] is given as “completely blocked”. Besides, the “effect on alendronate-induced accumulation of unprenylated Rap1A” value in series [3] was “reduced”. The “effect on nitrogen-containing bisphosphonate (risedronate or zoledronate)-induced p38 phosphorylation” value in series [4] is “blocked”. Moreover, in series [5], the “effect on zoledronate-induced (10^−4 M) p38 phosphorylation” value was “blocked”. Moreover, the results for the “effect of added Ca2+ on the bisphosphonate's growth inhibitory effect” value with MDA-MB-231 cells and with AB-12 cells were “not” and “augmented”, respectively. Also, the “effect of added EGTA on the bisphosphonate's growth inhibitory effect” value in the series with J774 cells is reported as “reversed”. The cell viability entry in the series on J774 cells (10^−3 M alone, P<0.001 vs PBS-control) was “highest sensitivity”. The “cell viability in combination with 1 mM CaCl2” value in the series on J774 cells (clodronate 10^−3 M + 1 mM CaCl2) was “toxic”.

With `CC(O)(P(=O)(O)O)P(=O)(O)O` [etidronate], the “accumulation of unprenylated Rap1A” value in series [2] and in series [3] was “no effect” throughout. Besides, in series [2], the “effect on nitrogen-containing bisphosphonate-induced accumulation of unprenylated Rap1A” value is “completely blocked”. In series [4], the “effect on nitrogen-containing bisphosphonate (risedronate or zoledronate)-induced p38 phosphorylation” value was “blocked”. For the same compound, the “effect on zoledronate-induced (10^−4 M) p38 phosphorylation” value in series [5] was “blocked”. The “effect of added Ca2+ on the bisphosphonate's growth inhibitory effect” value in the series on MDA-MB-231 cells is on record as “not”; in the series on AB-12 cells, “augmented”.

In the case of `CC(C)=CCC/C(C)=C/CC/C(C)=C/CC/C(C)=C/CO` [geranylgeraniol], in series [3], the “effect on alendronate-induced accumulation of unprenylated Rap1A” value is given as “reduced”.

Consider “IL-1β: cytokine (R&D Systems), molecule completely unrelated to bisphosphonates”, for which the “effect on alendronate-induced accumulation of unprenylated Rap1A” value in series [3] is reported as “not blocked”.

For the compound TNF-α, the “effect on alendronate-induced accumulation of unprenylated Rap1A” value in series [3] is recorded as “not blocked”.
